Active and inactive are the calls of the source. No rule for the calls is given here.
System: CCRIS mutagenicity, Ames/micronucleus/aberration tests
Experiment: CCRIS mutagenicity studies
[1] = Test System: AMES SALMONELLA TYPHIMURIUM, Strain/Indicator: TA98, Metabolic Activation: NONE, Method: STANDARD PLATE
[2] = Test System: AMES SALMONELLA TYPHIMURIUM, Strain/Indicator: TA98, Metabolic Activation: RAT, LIVER, S-9, AROCLOR 1254, Method: STANDARD PLATE
[3] = Test System: AMES SALMONELLA TYPHIMURIUM, Strain/Indicator: TA100, Metabolic Activation: NONE, Method: STANDARD PLATE
[4] = Test System: AMES SALMONELLA TYPHIMURIUM, Strain/Indicator: TA100, Metabolic Activation: RAT, LIVER, S-9, AROCLOR 1254, Method: STANDARD PLATE
[5] = Test System: AMES SALMONELLA TYPHIMURIUM, Strain/Indicator: TA1535, Metabolic Activation: NONE, Method: STANDARD PLATE
[6] = Test System: AMES SALMONELLA TYPHIMURIUM, Strain/Indicator: TA1535, Metabolic Activation: RAT, LIVER, S-9, AROCLOR 1254, Method: STANDARD PLATE
[7] = Test System: AMES SALMONELLA TYPHIMURIUM, Strain/Indicator: TA1537, Metabolic Activation: NONE, Method: STANDARD PLATE
[8] = Test System: AMES SALMONELLA TYPHIMURIUM, Strain/Indicator: TA1537, Metabolic Activation: RAT, LIVER, S-9, AROCLOR 1254, Method: STANDARD PLATE
[9] = Test System: AMES SALMONELLA TYPHIMURIUM, Strain/Indicator: TA97, Metabolic Activation: NONE, Method: PREINCUBATION

With `CCOC(=O)CC(=O)CCl` the mutagenic call (Test System: AMES SALMONELLA TYPHIMURIUM, Strain/Indicator: TA98, Metabolic Activation: HAMSTER, LIVER, S-9, AROCLOR 1254, Method: STANDARD PLATE) was “inactive; negative”, the mutagenic call [1] was “inactive; negative” and the mutagenic call [2] was “inactive; negative”. The mutagenic call (Test System: AMES SALMONELLA TYPHIMURIUM, Strain/Indicator: TA100, Metabolic Activation: HAMSTER, LIVER, S-9, AROCLOR 1254, Method: STANDARD PLATE) was “inactive; negative”, the mutagenic call [3] was “inactive; negative” and the mutagenic call [4] was “inactive; negative”. The mutagenic call (Test System: AMES SALMONELLA TYPHIMURIUM, Strain/Indicator: TA1535, Metabolic Activation: HAMSTER, LIVER, S-9, AROCLOR 1254, Method: STANDARD PLATE) was “inactive; negative”, the mutagenic call [5] was “inactive; negative” and the mutagenic call [6] was “inactive; negative”. For the same compound, the mutagenic call (Test System: AMES SALMONELLA TYPHIMURIUM, Strain/Indicator: TA1537, Metabolic Activation: HAMSTER, LIVER, S-9, AROCLOR 1254, Method: STANDARD PLATE) was “inactive; negative”, the mutagenic call [7] was “inactive; negative” and the mutagenic call [8] was “inactive; negative”. For the same compound, the mutagenic call (Test System: AMES SALMONELLA TYPHIMURIUM, Strain/Indicator: TA1538, Metabolic Activation: HAMSTER, LIVER, S-9, AROCLOR 1254, Method: STANDARD PLATE) was “inactive; negative”, the mutagenic call (Test System: AMES SALMONELLA TYPHIMURIUM, Strain/Indicator: TA1538, Metabolic Activation: NONE, Method: STANDARD PLATE) was “inactive; negative” and the mutagenic call (Test System: AMES SALMONELLA TYPHIMURIUM, Strain/Indicator: TA1538, Metabolic Activation: RAT, LIVER, S-9, AROCLOR 1254, Method: STANDARD PLATE) was “inactive; negative”. The mutagenic call (Test System: MOUSE LYMPHOMA, Strain/Indicator: L5178Y (TK+/TK-), Metabolic Activation: NONE, Method: SUSPENSION/PLATE) was “active; positive. reevaluation of results: positive” and the mutagenic call (Test System: MOUSE LYMPHOMA, Strain/Indicator: L5178Y (TK+/TK-), Metabolic Activation: RAT, LIVER, S-9, AROCLOR 1254, Method: SUSPENSION/PLATE) was “active; positive. reevaluation of results: positive”.
With `CC1CCCC1` the mutagenic call (Test System: AMES SALMONELLA TYPHIMURIUM, Strain/Indicator: TA97, Metabolic Activation: HAMSTER, LIVER, S-9, AROCLOR 1254 (10%), Method: PREINCUBATION) was “inactive; negative”, the mutagenic call (Test System: AMES SALMONELLA TYPHIMURIUM, Strain/Indicator: TA97, Metabolic Activation: HAMSTER, LIVER, S-9, AROCLOR 1254 (30%), Method: PREINCUBATION) was “inactive; negative” and the mutagenic call [9] was “inactive; negative”. The mutagenic call (Test System: AMES SALMONELLA TYPHIMURIUM, Strain/Indicator: TA97, Metabolic Activation: RAT, LIVER, S-9, AROCLOR 1254 (10%), Method: PREINCUBATION) was “inactive; negative”, the mutagenic call (Test System: AMES SALMONELLA TYPHIMURIUM, Strain/Indicator: TA97, Metabolic Activation: RAT, LIVER, S-9, AROCLOR 1254 (30%), Method: PREINCUBATION) was “inactive; negative” and the mutagenic call (Test System: AMES SALMONELLA TYPHIMURIUM, Strain/Indicator: TA98, Metabolic Activation: HAMSTER, LIVER, S-9, AROCLOR 1254 (10%), Method: PREINCUBATION) was “inactive; negative”. For the same compound, the mutagenic call (Test System: AMES SALMONELLA TYPHIMURIUM, Strain/Indicator: TA98, Metabolic Activation: HAMSTER, LIVER, S-9, AROCLOR 1254 (30%), Method: PREINCUBATION) was “inactive; negative”, the mutagenic call (Test System: AMES SALMONELLA TYPHIMURIUM, Strain/Indicator: TA98, Metabolic Activation: NONE, Method: PREINCUBATION) was “inactive; negative” and the mutagenic call (Test System: AMES SALMONELLA TYPHIMURIUM, Strain/Indicator: TA98, Metabolic Activation: RAT, LIVER, S-9, AROCLOR 1254 (10%), Method: PREINCUBATION) was “inactive; negative”. For the same compound, the mutagenic call (Test System: AMES SALMONELLA TYPHIMURIUM, Strain/Indicator: TA98, Metabolic Activation: RAT, LIVER, S-9, AROCLOR 1254 (30%), Method: PREINCUBATION) was “inactive; negative”, the mutagenic call (Test System: AMES SALMONELLA TYPHIMURIUM, Strain/Indicator: TA100, Metabolic Activation: HAMSTER, LIVER, S-9, AROCLOR 1254 (10%), Method: PREINCUBATION) was “inactive; negative” and the mutagenic call (Test System: AMES SALMONELLA TYPHIMURIUM, Strain/Indicator: TA100, Metabolic Activation: HAMSTER, LIVER, S-9, AROCLOR 1254 (30%), Method: PREINCUBATION) was “inactive; negative”. The mutagenic call (Test System: AMES SALMONELLA TYPHIMURIUM, Strain/Indicator: TA100, Metabolic Activation: NONE, Method: PREINCUBATION) was “inactive; negative”, the mutagenic call (Test System: AMES SALMONELLA TYPHIMURIUM, Strain/Indicator: TA100, Metabolic Activation: RAT, LIVER, S-9, AROCLOR 1254 (10%), Method: PREINCUBATION) was “inactive; negative” and the mutagenic call (Test System: AMES SALMONELLA TYPHIMURIUM, Strain/Indicator: TA100, Metabolic Activation: RAT, LIVER, S-9, AROCLOR 1254 (30%), Method: PREINCUBATION) was “inactive; negative”. For the same compound, the mutagenic call (Test System: AMES SALMONELLA TYPHIMURIUM, Strain/Indicator: TA1535, Metabolic Activation: HAMSTER, LIVER, S-9, AROCLOR 1254 (10%), Method: PREINCUBATION) was “inactive; negative”, the mutagenic call (Test System: AMES SALMONELLA TYPHIMURIUM, Strain/Indicator: TA1535, Metabolic Activation: HAMSTER, LIVER, S-9, AROCLOR 1254 (30%), Method: PREINCUBATION) was “inactive; negative” and the mutagenic call (Test System: AMES SALMONELLA TYPHIMURIUM, Strain/Indicator: TA1535, Metabolic Activation: NONE, Method: PREINCUBATION) was “inactive; negative”. For the same compound, the mutagenic call (Test System: AMES SALMONELLA TYPHIMURIUM, Strain/Indicator: TA1535, Metabolic Activation: RAT, LIVER, S-9, AROCLOR 1254 (10%), Method: PREINCUBATION) was “inactive; negative” and the mutagenic call (Test System: AMES SALMONELLA TYPHIMURIUM, Strain/Indicator: TA1535, Metabolic Activation: RAT, LIVER, S-9, AROCLOR 1254 (30%), Method: PREINCUBATION) was “inactive; negative”.
In the case of `O=C(n1ccnc1)n1ccnc1`, the mutagenic call [1] is reported as “inactive; negative”, the mutagenic call [2] is reported as “inactive; negative” and the mutagenic call [3] is reported as “inactive; negative”. The mutagenic call [4] was “inactive; negative”, the mutagenic call [5] was “inactive; negative” and the mutagenic call [6] was “inactive; negative”. For the same compound, the mutagenic call [7] was “inactive; negative” and the mutagenic call [8] was “inactive; negative”.
`CCOC(=O)CC(C)C` was tested, and the mutagenic call [9] was “inactive; negative”, the mutagenic call (Test System: AMES SALMONELLA TYPHIMURIUM, Strain/Indicator: TA97, Metabolic Activation: RAT, LIVER, S-9, AROCLOR 1254, Method: PREINCUBATION) was “inactive; negative” and the mutagenic call (Test System: AMES SALMONELLA TYPHIMURIUM, Strain/Indicator: TA102, Metabolic Activation: NONE, Method: PREINCUBATION) was “inactive; negative”. The mutagenic call (Test System: AMES SALMONELLA TYPHIMURIUM, Strain/Indicator: TA102, Metabolic Activation: RAT, LIVER, S-9, AROCLOR 1254, Method: PREINCUBATION) was “inactive; negative”.
For `Nc1cnc2c(c1)nc1ccccn12`, the mutagenic call [1] was “inactive; negative”, the mutagenic call (Test System: AMES SALMONELLA TYPHIMURIUM, Strain/Indicator: TA98, Metabolic Activation: RAT, LIVER, CYTOSOL, AROCLOR 1254, Method: STANDARD PLATE) was “inactive; negative” and the mutagenic call (Test System: AMES SALMONELLA TYPHIMURIUM, Strain/Indicator: TA98, Metabolic Activation: RAT, LIVER, MICROSOMES, AROCLOR 1254, Method: STANDARD PLATE) was “inactive; negative”. For the same compound, the mutagenic call [2] was “active; positive”.

From PubChem BioAssay AID1259407 (Chemical Carcinogenesis Research Information System (CCRIS), 2018)
